{
  "source": "paper PMC5553068",
  "about": "(Bioorganic & medicinal chemistry, 2017)",
  "key": {"renin": {"system": "renin", "conditions": "ligand of the 2IKO X-ray structure; cited from earlier work"}, "[1]": {"conditions": "Table 7, literature comparators, no reference given; cited from earlier work"}, "human renin": {"molecular_target": "T1, human renin (Homo sapiens, UniProt P00797)", "T1 sequence (P00797 67-406)": "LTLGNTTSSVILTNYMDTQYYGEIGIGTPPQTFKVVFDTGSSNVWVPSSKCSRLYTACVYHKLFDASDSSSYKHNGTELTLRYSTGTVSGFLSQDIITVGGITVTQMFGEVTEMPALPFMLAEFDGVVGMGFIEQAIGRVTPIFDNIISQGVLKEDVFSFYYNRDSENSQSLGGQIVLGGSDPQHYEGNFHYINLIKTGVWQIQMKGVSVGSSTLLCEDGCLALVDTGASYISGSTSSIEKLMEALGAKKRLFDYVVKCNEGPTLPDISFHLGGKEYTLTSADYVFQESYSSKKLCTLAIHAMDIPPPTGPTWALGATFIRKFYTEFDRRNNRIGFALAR", "conditions": "for Ligand Efficiency: Table 3"}, "[2]": {"test": "Rat in vivo pharmacokinetic studies", "set-up": "species or system Sprague Dawley rats", "conditions": "for AUC: 10 mg/kg po dose, HCl salts, vehicle D5W, mean n = 3; for clearance / bioavailability: Sprague-Dawley, plasma; for clearance: iv, 1 mg/kg; for bioavailability: po, 10 mg/kg"}},
  "data": [
    {"molecule": "CCc1nc(N)nc(N)c1-c1ccc(NCc2cc(F)cc(F)c2)cc1", "note": "[Compound 8]", "values": [
      {"measurement": "IC50", "setting": "renin", "value": 4, "unit": "µM"}
    ]},
    {"molecule": "CCc1nc(N)nc(N)c1-c1ccc2c(c1)N(CCCOC)C(=O)C(C)(c1cc(F)cc(F)c1)O2", "note": "(centres unmarked) [Compound 7c]", "values": [
      {"measurement": "%F (rat)", "setting": "[1]", "value": 0.4, "unit": "%"}
    ]},
    {"molecule": "CCc1nc(N)cc(C)c1-c1cccc2c(C)c[nH]c12", "note": "[Compound 20, 6-Ethyl-4-methyl-5-(3-methyl-1H-indol-7-yl)pyridin-2-amine]", "values": [
      {"measurement": "fold improvement in activity", "setting": "human renin; going from 17 to 19 and then to 20", "value": 36, "unit": "fold"}
    ]},
    {"molecule": "CCc1nc(N)cc(C)c1-c1ccc2c(c1)N(CCCOC)C(=O)C(C)(C)O2", "note": "[Compound 34, 6-(6-Amino-2-ethyl-4-methylpyridin-3-yl)-4-(3-methoxypropyl)-2,2-dimethyl-2H-benzo[b][1,4]oxazin-3(4H)-one]", "values": [
      {"measurement": "fold improvement in affinity vs 7b", "setting": "human renin; 6-ethyl-2-aminopyridine head group vs pyrimidine 7b, Table 5", "value": "2- to 3 fold"}
    ]},
    {"molecule": "CCc1nc(N)cc(OC)c1-c1ccc2c(c1)N(CCNC(C)=O)C(=O)C(C)(C)O2", "note": "[Compound 33, N-(2-(6-(6-Amino-2-ethyl-4-methoxypyridin-3-yl)-2,2-dimethyl-3-oxo-2H-benzo[b][1,4]oxazin-4(3H)-yl)ethyl)acetamide]", "values": [
      {"measurement": "AUC", "setting": "[2]", "value": 1493, "unit": "ngh/mL"},
      {"measurement": "clearance", "setting": "[2]", "value": 56, "unit": "mL/min/kg"},
      {"measurement": "bioavailability", "setting": "[2]", "value": 39, "unit": "%"}
    ]},
    {"molecule": "COCCCN1CCCc2ccc(-c3c(C)cc(N)nc3C)cc21", "note": "[Compound 12, 5-(1-(3-Methoxypropyl)-1,2,3,4-tetrahydroquinolin-7-yl)-4,6-dimethylpyridin-2-amine]", "values": [
      {"measurement": "Ligand Efficiency", "setting": "human renin", "value": 0.27}
    ]},
    {"molecule": "CCc1nc(N)cc(OC)c1-c1ccc2c(c1)N(CCCOC)CCC2", "note": "[Compound 15, 6-Ethyl-4-methoxy-5-(1-(3-methoxypropyl)-1,2,3,4-tetrahydroquinolin-7-yl)pyridin-2-amine]", "values": [
      {"measurement": "Ligand Efficiency", "setting": "human renin", "value": 0.33}
    ]},
    {"molecule": "CCc1nc(N)cc(C)c1-c1ccc2c(c1)N(CCCOC)CCC2", "note": "[Compound 13, 6-Ethyl-5-(1-(3-methoxypropyl)-1,2,3,4-tetrahydroquinolin-7-yl)-4-methylpyridin-2-amine]", "values": [
      {"measurement": "Ligand Efficiency", "setting": "human renin", "value": 0.34}
    ]},
    {"molecule": "CCc1nc(N)nc(N)c1-c1ccc2c(c1)N(CCCOC)CCC2", "note": "[Compound 6c, reference compound]", "values": [
      {"measurement": "Ligand Efficiency", "setting": "human renin", "value": 0.34}
    ]},
    {"molecule": "CCc1nc(N)cc(C)c1-c1ccc(F)c2c(C)c(CCOC)[nH]c12", "note": "[Compound 27, 6-Ethyl-5-(4-fluoro-2-(2-methoxyethyl)-3-methyl-1H-indol-7-yl)-4-methylpyridin-2-amine]", "values": [
      {"measurement": "AUC", "setting": "[2]", "value": 473, "unit": "ngh/mL"},
      {"measurement": "clearance", "setting": "[2]", "value": 68, "unit": "mL/min/kg"},
      {"measurement": "bioavailability", "setting": "[2]", "value": 20, "unit": "%"}
    ]},
    {"molecule": "CCc1nc(N)cc(C)c1-c1ccc2c(c1)N(CCNC(C)=O)C(=O)C(C)(C)O2", "note": "[Compound 32, N-(2-(6-(6-Amino-2-ethyl-4-methylpyridin-3-yl)-2,2-dimethyl-3-oxo-2H-benzo[b][1,4]oxazin-4(3H)-yl)ethyl)acetamide]", "values": [
      {"measurement": "AUC", "setting": "[2]", "value": 1810, "unit": "ngh/mL"},
      {"measurement": "clearance", "setting": "[2]", "value": 66, "unit": "mL/min/kg"},
      {"measurement": "bioavailability", "setting": "[2]", "value": 58, "unit": "%"}
    ]}
  ]
}
